Test results as given in US20240158392A1 (Janssen Biotech, Inc., priority 2021, published 2024).

These compounds were tested against SIK2 (Homo sapiens, UniProt Q9H0K1) (assay: SIK2 Enzymatic Assay High Version 2 (High ATP)). Conditions: not given.
Type: biochemical
Method in brief: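 At room temperature, enzyme (6 nM, 2× final) was preincubated with compound for 30 min, then 6 mM ATP and 400 μM HDAC5tide (both 2× final) were added for 2 h. ADP formed was measured by ADP-Glo Max (2 h reagent, 1 h detection) using luminescence.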

Chain of SIK2 (Q9H0K1 whole entry, species assumed): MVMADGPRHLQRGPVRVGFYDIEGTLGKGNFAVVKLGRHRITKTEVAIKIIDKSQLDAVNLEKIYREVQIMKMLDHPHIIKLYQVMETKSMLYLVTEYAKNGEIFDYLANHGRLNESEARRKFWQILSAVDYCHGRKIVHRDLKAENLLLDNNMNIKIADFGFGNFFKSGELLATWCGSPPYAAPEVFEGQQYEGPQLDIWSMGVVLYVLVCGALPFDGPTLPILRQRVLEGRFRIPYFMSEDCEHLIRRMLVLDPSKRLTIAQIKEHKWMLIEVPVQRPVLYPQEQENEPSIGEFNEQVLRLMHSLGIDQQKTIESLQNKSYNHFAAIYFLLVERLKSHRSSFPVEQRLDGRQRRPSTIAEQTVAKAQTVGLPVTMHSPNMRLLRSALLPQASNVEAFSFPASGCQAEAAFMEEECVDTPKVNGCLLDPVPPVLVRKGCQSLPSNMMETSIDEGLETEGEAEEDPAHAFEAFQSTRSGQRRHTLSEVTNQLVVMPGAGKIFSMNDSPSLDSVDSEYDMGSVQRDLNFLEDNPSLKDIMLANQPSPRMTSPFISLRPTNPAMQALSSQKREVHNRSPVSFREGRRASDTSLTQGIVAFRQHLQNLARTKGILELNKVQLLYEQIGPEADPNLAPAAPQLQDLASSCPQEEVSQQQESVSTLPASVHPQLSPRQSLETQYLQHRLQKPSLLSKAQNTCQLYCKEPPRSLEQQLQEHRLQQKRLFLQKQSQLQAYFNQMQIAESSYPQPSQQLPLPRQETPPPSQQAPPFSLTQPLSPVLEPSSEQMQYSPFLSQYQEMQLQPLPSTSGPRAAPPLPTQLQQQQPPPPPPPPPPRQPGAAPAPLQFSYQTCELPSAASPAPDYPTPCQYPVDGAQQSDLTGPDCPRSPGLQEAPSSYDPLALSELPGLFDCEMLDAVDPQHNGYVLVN

Compound	IC50
Cc1cc(-c2ccn3nc(NC(=O)C4CC4)cc3c2)c(OC[C@H]2NCC2(C)C)cn1 [Example 471, N-[5-[5-[[(2S)-3,3-dimethylazetidin-2-yl]methoxy]-2-methyl-4-pyridyl]pyrazolo[1,5-a]pyridin-2-yl]cyclopropanecarboxamide]	0.0277 µM
Cc1cc(-c2ccn3nc(NC(=O)C4CC4)cc3c2)c(OC[C@H]2N(C)CC2(C)C)cn1 [Example 473, N-[5-[2-methyl-5-[[(2S)-1,3,3-trimethylazetidin-2-yl]methoxy]-4-pyridyl]pyrazolo[1,5-a]pyridin-2-yl]cyclopropanecarboxamide]	0.0182 µM
CC#Cc1ccc(O[C@H]2C[C@H]3COC[C@@H](C2)N3)c(-c2ccn3nc(NC(=O)C4CC4)cc3c2)c1 [Example 479, N-[5-[2-[[(1R,5S)-3-oxa-9-azabicyclo[3.3.1]nonan-7-yl]oxy]-5-prop-1-ynyl-phenyl]pyrazolo[1,5-a]pyridin-2-yl]cyclopropanecarboxamide]	0.0371 µM
CCC(=O)c1ccc(O[C@H]2C[C@H]3COC[C@@H](C2)N3)c(-c2ccn3nc(NC(=O)C4CC4)cc3c2)c1 [Example 480, N-[5-[2-[[(1R,5S)-3-oxa-9-azabicyclo[3.3.1]nonan-7-yl]oxy]-5-propanoyl-phenyl]pyrazolo[1,5-a]pyridin-2-yl]cyclopropanecarboxamide]	< 0.000847 µM
O=C(Nc1cc2cc(-c3cc(C(F)F)ccc3O[C@H]3C[C@H]4COC[C@@H](C3)N4)ccn2n1)C1CC1 [Example 481, N-[5-[5-(difluoromethyl)-2-[[(1R,5S)-3-oxa-9-azabicyclo[3.3.1]nonan-7-yl]oxy]phenyl]pyrazolo[1,5-a]pyridin-2-yl]cyclopropanecarboxamide]	< 0.000847 µM
CN1[C@@H]2COC[C@H]1C[C@@H](Oc1ccc(C(F)F)cc1-c1ccn3nc(NC(=O)C4CC4)cc3c1)C2 [Example 482, N-[5-[5-(difluoromethyl)-2-[[(1R,5S)-9-methyl-3-oxa-9-azabicyclo[3.3.1]nonan-7-yl]oxy]phenyl]pyrazolo[1,5-a]pyridin-2-yl]cyclopropanecarboxamide]	0.00424 µM
Cc1cc(-c2ccn3nc(Nc4cnccn4)cc3c2)c(O[C@H]2C[C@H]3COC[C@@H](C2)N3)nn1 [Example 486, 5-[6-methyl-3-[[(1S,5R)-3-oxa-9-azabicyclo[3.3.1]nonan-7-yl]oxy]pyridazin-4-yl]-N-pyrazin-2-yl-pyrazolo[1,5-a]pyridin-2-amine]	0.0285 µM
O=C(Nc1cc2cc(-c3cc(Cl)ncc3O[C@@H]3C[C@H]4COC[C@@H](C3)N4)ccn2n1)C1CC1 [Example 492, N-[5-[2-chloro-5-[[(1S,5R)-3-oxa-9-azabicyclo[3.3.1]nonan-7-yl]oxy]-4-pyridyl]pyrazolo[1,5-a]pyridin-2-yl]cyclopropanecarboxamide]	0.0516 µM
Cc1cc(Nc2cc3cc(-c4cc(Cl)ncc4O[C@@H]4[C@@H]5CO[C@H]4CN5)ccn3n2)nc(C)n1 [Example 495, 5-[2-chloro-5-[[(1S,4S,7R)-2-oxa-5-azabicyclo[2.2.1]heptan-7-yl]oxy]-4-pyridyl]-N-(2,6-dimethylpyrimidin-4-yl)pyrazolo[1,5-a]pyridin-2-amine]	0.0134 µM

Same assay, conditions: enzyme 6 nM, 6 mM ATP and 400 μM HDAC5tide (each 2× final concentration); 30 minutes pre-incubation, 2 hours; ADP-Glo Max luminescence; read-out: SIK2 high ATP IC50 (μM) (Test Example 2)

IC50	Compound
0.00511 µM	Cc1cc(-c2ccn3nc(NC(=O)C4CC4)cc3c2)c(OCC2(c3ccccc3)CNC2)cn1 [Example 470, N-[5-[2-methyl-5-[(3-phenylazetidin-3-yl)methoxy]-4-pyridyl]pyrazolo[1,5-a]pyridin-2-yl]cyclopropanecarboxamide]
0.0431 µM	Cc1cnc(OC[C@@H]2CNCCO2)c(-c2ccn3nc(NC(=O)C4CC4)cc3c2)c1 [Example 474, N-[5-[5-methyl-2-[[(2S)-morpholin-2-yl]methoxy]-3-pyridyl]pyrazolo[1,5-a]pyridin-2-yl]cyclopropanecarboxamide]
< 0.000847 µM	N#Cc1ccc(OC[C@H]2CNCCO2)c(-c2ccn3nc(Nc4ccccn4)cc3c2)c1 [Example 478, 4-[[(2R)-morpholin-2-yl]methoxy]-3-[2-(2-pyridylamino)pyrazolo[1,5-a]pyridin-5-yl]benzonitrile]
0.0443 µM	Cc1cc(Nc2cc3cc(-c4cc(C#N)ccc4O[C@H]4CC[C@H](O)CC4)ccn3n2)nc(C)n1 [Example 483, 3-[2-[(2,6-dimethylpyrimidin-4-yl)amino]pyrazolo[1,5-a]pyridin-5-yl]-4-(4-hydroxycyclohexoxy)benzonitrile]
0.0571 µM	Cc1cc(Nc2cc3cc(-c4cc(C#N)ccc4OCC(C)(C)O)ccn3n2)nc(C)n1 [Example 484, 3-[2-[(2,6-dimethylpyrimidin-4-yl)amino]pyrazolo[1,5-a]pyridin-5-yl]-4-(2-hydroxy-2-methyl-propoxy)benzonitrile]
< 0.000847 µM	CN1CC(Oc2nnc(Cl)cc2-c2ccn3nc(NC(=O)C4CC4)cc3c2)C1 [Example 485, N-[5-[6-chloro-3-(1-methylazetidin-3-yl)oxy-pyridazin-4-yl]pyrazolo[1,5-a]pyridin-2-yl]cyclopropanecarboxamide]
0.0238 µM	CC(=O)O[C@H]1CC[C@H](Oc2nnc(C)cc2-c2ccn3nc(Nc4cc(C)nc(C)n4)cc3c2)CC1 [Example 487, [4-[4-[2-[(2,6-dimethylpyrimidin-4-yl)amino]pyrazolo[1,5-a]pyridin-5-yl]-6-methyl-pyridazin-3-yl]oxycyclohexyl] acetate]
0.0152 µM	CN1CC(Oc2cnc(Cl)cc2-c2ccn3nc(NC(=O)C4CC4)cc3c2)C1 [Example 491, N-[5-[2-chloro-5-(1-methylazetidin-3-yl)oxy-4-pyridyl]pyrazolo[1,5-a]pyridin-2-yl]cyclopropanecarboxamide]
0.0662 µM	Cc1cc(Nc2cc3cc(-c4cc(C(F)F)ncc4OCC(C)(C)O)ccn3n2)nc(C)n1 [Example 493, 1-[[6-(difluoromethyl)-4-[2-[(2,6-dimethylpyrimidin-4-yl)amino]pyrazolo[1,5-a]pyridin-5-yl]-3-pyridyl]oxy]-2-methyl-propan-2-ol]
0.00254 µM	Cc1cc(Nc2cc3cc(-c4cc(C(F)(F)F)ncc4OCC(C)(C)C#N)ccn3n2)nc(C)n1 [Example 494, 3-[[4-[2-[(2,6-dimethylpyrimidin-4-yl)amino]pyrazolo[1,5-a]pyridin-5-yl]-6-(trifluoromethyl)-3-pyridyl]oxy]-2,2-dimethyl-propanenitrile]
0.00143 µM	COc1cc(-c2ccn3nc(Nc4cc(C)nc(C)n4)cc3c2)c(OC[C@@H]2CNCCO2)cn1 [Example 496, N-(2,6-dimethylpyrimidin-4-yl)-5-[2-methoxy-5-[[(2S)-morpholin-2-yl]methoxy]-4-pyridyl]pyrazolo[1,5-a]pyridin-2-amine]
0.0176 µM	Cc1cc(Nc2cc3cc(-c4cc(Cl)ncc4OC[C@@H]4CNCCO4)ccn3n2)nc(C)n1 [Example 497, 5-[2-chloro-5-[[(2S)-morpholin-2-yl]methoxy]-4-pyridyl]-N-(2,6-dimethylpyrimidin-4-yl)pyrazolo[1,5-a]pyridin-2-amine]
0.0414 µM	COc1cc(-c2ccn3nc(Nc4cc(C)nc(C)n4)cc3c2)c(OC[C@H]2OCC[C@@H]2O)cn1 [Example 498, (2R,3S)-2-[[4-[2-[(2,6-dimethylpyrimidin-4-yl)amino]pyrazolo[1,5-a]pyridin-5-yl]-6-methoxy-3-pyridyl]oxymethyl]tetrahydrofuran-3-ol]
